Measurements from ChEMBL document CHEMBL4130407, “A novel class of thiosemicarbazones show multi-functional activity for the treatment of Alzheimer's disease” (Eur J Med Chem, 2017).
Activity calls are given as the source filed them. The rule behind the calls is not given here.

Legend:
[1] = test system: SK-N-MC; test: cells; type: ADME, cell-based; settings: Homo sapiens, 72 h
Description: Antiproliferative activity against human SK-N-MC cells after 72 hrs by MTT assay

[2] = test system: SK-N-MC; test: cells; settings: Homo sapiens, read-out: Activity
Description: (§1) Neuroprotective activity against H2O2-induced cell death in human SK-N-MC cells assessed as cell viability at 10 uM preincubated for 2 hrs followed by H2O2 addition and measured after 24 hrs by MTT assay

[3] = target: Acetylcholinesterase (Electrophorus electricus, UniProt O42275); test: Inhibition of electric eel AChE using acetylthiocholine iodide as substrate preincubated for 15 mins followed by substrate addition measured for 5 mins by UV spectrophotometric analysis
Sequence of Acetylcholinesterase (O42275 whole entry): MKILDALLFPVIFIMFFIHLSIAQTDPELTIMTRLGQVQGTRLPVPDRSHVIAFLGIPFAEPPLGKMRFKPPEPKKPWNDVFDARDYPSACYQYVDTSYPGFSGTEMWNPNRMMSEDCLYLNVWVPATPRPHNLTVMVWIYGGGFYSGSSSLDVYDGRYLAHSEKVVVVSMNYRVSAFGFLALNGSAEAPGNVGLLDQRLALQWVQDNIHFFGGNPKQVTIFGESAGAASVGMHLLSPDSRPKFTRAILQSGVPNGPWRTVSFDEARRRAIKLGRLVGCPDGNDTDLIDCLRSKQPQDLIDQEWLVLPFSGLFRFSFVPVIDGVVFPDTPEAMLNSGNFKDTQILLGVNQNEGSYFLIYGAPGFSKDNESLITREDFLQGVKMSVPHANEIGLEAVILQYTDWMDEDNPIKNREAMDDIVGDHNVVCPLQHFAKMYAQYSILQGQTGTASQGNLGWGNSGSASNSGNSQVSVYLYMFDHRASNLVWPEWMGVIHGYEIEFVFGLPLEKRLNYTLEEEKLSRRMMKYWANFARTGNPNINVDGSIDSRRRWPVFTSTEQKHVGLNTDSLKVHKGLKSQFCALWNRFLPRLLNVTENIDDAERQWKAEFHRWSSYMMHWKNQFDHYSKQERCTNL

[4] = test system: SK-N-MC; test: Induction of autophagy in human SK-N-MC cells assessed as decrease in p62 level at 25 uM after 24 hrs by Western blot analysis; type: functional, cell-based
[5] = test system: SK-N-MC; test: Induction of autophagy in human SK-N-MC cells assessed as increase in LC3 accumulation at 25 uM after 24 hrs in presence of autophagy inhibitor Baf1 by Western blot analysis; type: functional, cell-based
[6] = Metal chelation activity assessed as 1:1 compound to Cu2+L complex formation in DMF:H2O (7:3) solution by EPR spectrscopy
[7] = Metal chelation activity assessed as 1:1 compound to Cu2+L complex formation in DMF:H2O (7:3) solution by cyclic voltametry
[8] = Metal chelation activity assessed as 1:2 Fe3+:L complex formation in DMF:H2O (7:3) solution by EPR spectrscopy
[9] = Metal chelation activity assessed as 1:2 Fe3+:L complex formation in DMF:H2O (7:3) solution by cyclic voltametry
[10] = Metal chelation activity assessed as 1:1 compound to Cu2+L2 complex formation in DMF:H2O (7:3) solution by EPR spectrscopy
[11] = test system: SK-N-MC; test: Binding affinity to 59Fe2+ in human SK-N-MC cells labeled with 59Fe2-transferrin assessed as Fe release at 25 uM after 3 hrs by gamma scintillation counting method relative to DFO; type: cell-based
[12] = test system: SK-N-MC; test: Induction of autophagy in human SK-N-MC cells assessed as increase in LC3 accumulation at 25 uM after 24 hrs in absence of autophagy inhibitor Baf1 by Western blot analysis; type: functional, cell-based
[13] = test system: SK-N-MC; settings: Homo sapiens, 10 uM
Description: as §1

[14] = Metal chelation activity assessed as 1:2 Fe2+:L complex formation in DMF:H2O (7:3) solution by EPR spectrscopy

| Structure (SMILES) | IC50 [1] [µM] | viability at 10 µM [2] [%] | IC50 [3] [µM] | Activity [4] | Activity [5] | Activity [6] | Activity [7] | Activity [8] | Activity [9] | Activity [10] | Activity [11] [%] | Activity [12] | Activity [13] | Activity [14] |
| --- | --- | --- | --- | --- | --- | --- | --- | --- | --- | --- | --- | --- | --- | --- |
| COc1cc2c(cc1OC)C(=O)C(CC1CCN(Cc3ccccc3)CC1)C2 (stereo unspecified) [DONEPEZIL] | > 100 | 74 | – | – | – | – | – | – | – | – | – | – | – | – |
| S=C(N/N=C/c1ccc2ccccc2n1)NC1CCN(Cc2ccccc2)CC1 | 17.7 | 66 to 87 | 1.02 to 22.6 | inactive | inactive | Active | Active | Active | Active | – | – | – | – | – |
| Oc1ccccc1/C=N/NC(=S)NC1CCN(Cc2ccccc2)CC1 | 34.4 | 66 to 87 | 1.02 to 22.6 | Active | inactive | Active | Active | Active | Active | inactive | 28 | – | – | – |
| Cc1ncc(CO)c(/C=N/NC(=S)NC2CCN(Cc3ccccc3)CC2)c1O | > 100 | 66 to 87 | 4.93 | inactive | Active | Active | Active | Active | Active | inactive | 31 | – | – | – |
| Oc1cccc2ccc(/C=N/NC(=S)NC3CCN(Cc4ccccc4)CC3)nc12 | 36.1 | 66 to 87 | 1.02 to 22.6 | inactive | Active | Active | Active | – | Active | – | 17 | Active | – | – |
| Oc1cccc(/C=N/NC(=S)NC2CCN(Cc3ccccc3)CC2)c1O | 16.9 | 66 to 87 | 1.02 | inactive | inactive | Active | – | – | – | – | 29 | Active | – | – |
| Oc1ccc2ccccc2c1/C=N/NC(=S)NC1CCN(Cc2ccccc2)CC1 | 8.86 | – | 1.23 | Active | inactive | Active | Active | Active | Active | inactive | 16 | Active | inactive | – |
| CC(=O)N(O)CCCCCNC(=O)CCC(=O)N(O)CCCCCNC(=O)CCC(=O)N(O)CCCCCN [DEFEROXAMINE] | 16.8 | 89 | – | – | – | – | – | – | – | – | – | – | – | – |
| CN(C)C(=S)NN=C(c1ccccn1)c1ccccn1 | 0.013 | – | – | Active | Active | – | – | – | – | – | – | – | – | – |
| S=C(N/N=C/c1ccccn1)NC1CCN(Cc2ccccc2)CC1 | 4.23 | 66 to 87 | 1.02 to 22.6 | inactive | Active | Active | Active | Active | Active | – | 18 | – | – | – |
| Oc1ccc(/C=N/NC(=S)NC2CCN(Cc3ccccc3)CC2)c(O)c1O | 79.1 | 66 to 87 | 1.02 to 22.6 | inactive | Active | Active | – | – | – | – | 14 | – | – | Active |
